The values below are quoted from earlier work in patent US20090061517A1, “Cell culture apparatus and methods of making and using same” (priority 2007, published 2009).

SMILES strings stand for the structures.

The conditions of the series: in humans.

On to `C[C@H]1COc2c(N3CCN(C)CC3)c(F)cc3c(=O)c(C(=O)O)cn1c23` [levofloxacin], for which the “idiosyncratic hepatotoxicity / idiosyncratic adverse drug reactions” value was “without liability for causing idiosyncratic adverse drug reactions”.

Regarding `N[C@@H]1[C@H]2CN(c3nc4c(cc3F)c(=O)c(C(=O)O)cn4-c3ccc(F)cc3F)C[C@@H]12` [trovafloxacin], the “idiosyncratic hepatotoxicity / idiosyncratic adverse drug reactions” value is given as “linked to idiosyncratic hepatotoxicity in humans”.
